Reference: patent US20250361230A1, “LATS Inhibitors and Uses Thereof” (The USA, as Represented by the Secretary, Dept. of Heath …, priority 2022, published 2025)

biological target: T1, LATS1 Kinase-NanoLuc fusion in HEK-293 cells (Homo sapiens, UniProt O95835); assay: NanoBRET target engagement assay in transfected HEK-293 cells, LATS1; type: cell-based; conditions: Table 28, NanoBRET, HEK-293 cells; read-out: LATS1 (Cellular) IC50
T1 construct: host or cells: HEK-293
T1 sequence (O95835 1-1130): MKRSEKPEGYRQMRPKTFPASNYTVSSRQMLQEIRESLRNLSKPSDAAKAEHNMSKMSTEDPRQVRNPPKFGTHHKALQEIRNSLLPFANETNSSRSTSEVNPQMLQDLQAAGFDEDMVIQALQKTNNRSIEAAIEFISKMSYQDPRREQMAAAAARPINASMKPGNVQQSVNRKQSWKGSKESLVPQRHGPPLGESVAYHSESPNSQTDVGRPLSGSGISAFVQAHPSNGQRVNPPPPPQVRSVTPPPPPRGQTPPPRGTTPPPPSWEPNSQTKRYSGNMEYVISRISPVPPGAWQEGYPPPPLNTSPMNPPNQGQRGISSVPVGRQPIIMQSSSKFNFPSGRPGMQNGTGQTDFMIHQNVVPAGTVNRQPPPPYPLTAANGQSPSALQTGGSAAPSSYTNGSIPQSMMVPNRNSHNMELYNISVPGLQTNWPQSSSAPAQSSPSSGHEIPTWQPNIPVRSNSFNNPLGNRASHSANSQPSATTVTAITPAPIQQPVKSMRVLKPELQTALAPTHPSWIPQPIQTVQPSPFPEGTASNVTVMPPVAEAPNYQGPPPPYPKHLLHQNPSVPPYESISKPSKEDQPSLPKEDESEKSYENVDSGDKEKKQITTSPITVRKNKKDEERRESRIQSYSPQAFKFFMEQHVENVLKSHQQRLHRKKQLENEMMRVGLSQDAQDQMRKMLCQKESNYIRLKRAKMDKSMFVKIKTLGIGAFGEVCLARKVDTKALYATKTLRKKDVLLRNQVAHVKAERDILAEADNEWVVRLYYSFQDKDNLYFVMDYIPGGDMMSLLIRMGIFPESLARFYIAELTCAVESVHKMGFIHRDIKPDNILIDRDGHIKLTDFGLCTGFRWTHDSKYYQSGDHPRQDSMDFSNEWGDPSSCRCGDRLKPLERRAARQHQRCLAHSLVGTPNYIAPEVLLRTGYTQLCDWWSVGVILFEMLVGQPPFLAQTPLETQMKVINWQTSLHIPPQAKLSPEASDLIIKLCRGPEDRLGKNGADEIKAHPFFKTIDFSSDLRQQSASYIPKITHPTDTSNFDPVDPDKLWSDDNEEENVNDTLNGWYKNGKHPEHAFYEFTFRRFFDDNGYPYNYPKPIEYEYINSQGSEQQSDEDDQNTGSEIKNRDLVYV
Description: The NanoBRET™ assay measures kinase engagement in real time in the context of the intact cell. The assay uses a Kinase-NanoLuc® fusion vector expressing a kinase protein to which a luciferase tag has been added, a cell-permeant fluorescent NanoBRET™ tracer, a NanoLuc® substrate, and an extracellular NanoLuc® inhibitor. Upon expression of the luciferase-tagged kinase, cells will produce a strong BRET signal only in the presence of the NanoBRET™ tracer. The extracellular NanoLuc® inhibitor ensures that the BRET signal observed emanates only from live cells. Because the BRET signal has tight distance constraints, addition of the test compound will decrease the BRET signal if the compound competes with the NanoBRET™ tracer for binding to the kinase domain. Under the appropriate tracer conditions established by the manufacturer, quantitative intracellular affinity and relative potency can then be determined using Mass Action model equations.
HEK-293 cells were purchased from ATCC. FuGENEHD Transfection Reagent, Kinase-NanoLuc® fusion plasmids, Transfection Carrier DNA, NanoBRET™ Tracers and dilution buffer, NanoBRET™ Nano-Glo Substrate, Extracellular NanoLuc® Inhibitor were obtained from Promega.
Assays were conducted following Promega assay protocol with some modifications as described further below. HEK-293 Cells were transiently transfected with Kinase-NanoLuc® Fusion Vector DNA by FuGENE HD Transfection Reagent. Test compounds were delivered into 384 well assay plate by Echo 550 (Labcyte Inc, Sunnyvale, CA). Transfected cells were harvested and mixed with NanoBRET™ Tracer Reagent and dispensed into 384 well plates and incubated at 37° C. in 5% CO2 cell culture incubator for 1 hour. The NanoBRET™ Nano-Glo Substrate plus Extracellular NanoLuc® Inhibitor Solution were added into the wells of the assay plate and incubated for 2-3 minutes at room temperature. The donor emission wavelength (460 nm) and acceptor emission wavelength (600 nm) were measured in the EnVision plate reader. The BRET Ratios were calculated. BRET Ratio=[(Acceptor sample÷Donor sample)−(Acceptor no-tracer control÷Donor no-tracer control)]. The IC50 values of compounds were calculated with Prism GraphPad program.
• 1. Transient Transfection of HEK-293 Cells NanoLuc® Fusion Vector DNA • 1). Cultivate HEK-293 cells (70-80% confluence) appropriately prior to assay. Trypsinize and collect HEK-293 cells. • 2). Prepare lipid: DNA complexes as follows: • a. Prepare a […] solution of DNA in Opti-MEM™ without serum that consists of the following ratios of carrier DNA and DNA encoding NanoLuc® fusion. 9.0 µg/mL of Transfection Carrier DNA, […] of NanoLuc® fusion vector DNA and 1 mL of Opti-MEM™ without phenol red. Mix thoroughly. • b. Add 30 μl of FuGENE HD Transfection Reagent into each milliliter of DNA mixture to form lipid: DNA complex. • c. Mix by inversion 10 times. • d. Incubate at ambient temperature for 20 minutes to allow complexes to form. • 3). In a sterile, conical tube, mix 1 part of lipid: DNA complex with 20 parts of HEK-293 cells in suspension. Mix gently by inversion 5 times. • 4). Dispense cells+lipid: DNA complex into a sterile tissue culture dish and incubate for 22-24 hours. • 2. Addition of Test Compounds (dry plate shooting): Each test compound is delivered from the compound source plate to the wells of 384-well white NBS plate by Echo 550. • 3. Preparation of Cells with NanoBRET™ Tracer Reagent • 1). Remove medium from dish with transfected HEK-293 cells via aspiration, trypsinize and allow cells to dissociate from the dish. • 2). Neutralize trypsin using medium containing serum and centrifuge at 200× g for 5 minutes to pellet the cells. Adjust the cell density to 2×10^5 cells/mL in Opti-MEM™ without phenol red. • 3). Prepare Complete 20× NanoBRET™ Tracer Reagent with Tracer Dilution Buffer. • 4). Dispense one part of Complete 20× NanoBRET™ Tracer Reagent to 20 parts of cells in the tube. Mix gently by inversion 10 times. • 5). […]

Going from O=C([C@H]1CCCN1)N1CCC(O)(c2ccc(-c3ccnc4[nH]cc(F)c34)cc2)CC1 [Compound 142] to C[C@@H]1CNC[C@H](C)[C@@]1(O)c1ccc(-c2ccnc3[nH]cc(F)c23)cc1 [Compound 2, (3R,4s,5S)-4-(4-(3-fluoro-1H-pyrrolo[2,3-b]pyridin-4-yl)phenyl)-3,5-dimethylpiperidin-4-ol], the IC50 falls from 1840 nM to 550 nM (3.3-fold). The second is the more potent here.

Going from c1cc(-c2ccc3c(c2)CCNC3)c2cc[nH]c2n1 [Compound 267, 6-(1H-pyrrolo[2,3-b]pyridin-4-yl)-1,2,3,4-tetrahydroiso-quinoline] to C[C@@H]1CN(C)C[C@H](C)[C@@]1(O)c1ccc(-c2ccnc3[nH]cc(F)c23)cc1 [Compound 39, (3R,4s,5S)-4-(4-(3-fluoro-1H-pyrrolo[2,3-b]pyridin-4-yl)phenyl)-1,3,5-trimethylpiperidin-4-ol], the IC50 falls from over 50000 nM to 19000 nM. The second is the more potent here.

Cc1cc(-c2ccnc3[nH]cc(F)c23)cc(F)c1[C@@]1(O)[C@H](C)CN(C(=O)[C@@H](CO)N(C)C)C[C@@H]1C [Compound 313, (R)-2-(dimethylamino)-1-((3S,4S,5R)-4-(2-fluoro-4-(3-fluoro-1H-pyrrolo[2,3-b]pyridin-4-yl)-6-methylphenyl)-4-hydroxy-3,5-dimethylpiperidin-1-yl)-3-hydroxypropan-1-one] and Cc1cc(-c2ccnc3[nH]cc(F)c23)cc(F)c1C1(O)CC2(CN(C3COC3)C2)C1 [Compound 139, 6-(2-fluoro-4-(3-fluoro-1H-pyrrolo[2,3-b]pyridin-4-yl)-6-methylphenyl)-2-(oxetan-3-yl)-2-azaspiro[3.3]heptan-6-ol] are within 1.5-fold of each other in IC50: 43 nM for the first, 58.2 nM for the second.

Compared with C[C@@H]1CN(C)C[C@H](C)[C@@]1(O)c1cnc(-c2ccnc3[nH]cc(F)c23)cc1Cl [Compound 22, (3S,4s,5R)-4-(4-chloro-6-(3-fluoro-1H-pyrrolo[2,3-b]pyridin-4-yl)pyridin-3-yl)-1,3,5-trimethylpiperidin-4-ol], Cc1cc(-c2ccnc3[nH]cc(F)c23)ncc1[C@@]1(O)[C@H](C)CN(C2CCC2)C[C@@H]1C [Compound 48, (3R,4s,5S)-1-cyclobutyl-4-(6-(3-fluoro-1H-pyrrolo[2,3-b]pyridin-4-yl)-4-methylpyridin-3-yl)-3,5-dimethylpiperidin-4-ol] is 25-fold higher in IC50: 505 nM for the first, 12600 nM for the second.

In the case of Cc1cc(-c2ccnc3[nH]cc(F)c23)ccc1[C@@]1(O)[C@H](C)CN(C2CCS(=O)(=O)CC2)C[C@@H]1C [Compound 55, 4-((3R,4s, 5S)-4-(4-(3-fluoro-1H-pyrrolo[2,3-b]pyridin-4-yl)-2-methylphenyl)-4-hydroxy-3,5S-dimethylpiperidin-1-yl)tetrahydro-2H-thiopyran 1,1-dioxide], the IC50 is reported as 367 nM.

same assay, conditions: Table 32, NanoBRET, HEK-293 cells; read-out: LATS1 (Cellular) IC50

Compared with NCC(O)(c1ccc(Cl)cc1)c1ccc(-c2ccnc3[nH]cc(-c4ccccc4)c23)cc1 (stereo not shown) [Compound 1006, 2-amino-1-(4-chlorophenyl)-1-(4-(3-phenyl-1H-pyrrolo[2,3-b]pyridin-4-yl)phenyl)ethan-1-ol], NCC(O)(c1ccc(Cl)cc1)c1ccc(-c2ccnc3[nH]cc(F)c23)cc1 (stereo not shown) [Compound 1002, 2-amino-1-(4-chlorophenyl)-1-(4-(3-fluoro-1H-pyrrolo[2,3-b]pyridin-4-yl)phenyl)ethan-1-ol] is 5.1-fold lower in IC50: 283 nM for the first, 55 nM for the second. The second is the more potent here.

same assay, conditions: cellular

Going from Cc1cc(-c2ccnc3[nH]cc(C#N)c23)cc(F)c1[C@@]1(O)[C@H](C)CNC[C@@H]1C [Compound 2024, 4-(3-fluoro-4-((3S,4s,5R)-4-hydroxy-3,5-dimethylpiperidin-4-yl)-5-methylphenyl)-1H-pyrrolo[2,3-b]pyridine-3-carbonitrile] to CNCC(=O)N1C[C@@H](C)[C@](O)(c2c(C)cc(-c3ccnc4[nH]cc(C#N)c34)cc2F)[C@@H](C)C1 [Compound 2012, 4-(3-fluoro-4-((3S,4s,5R)-4-hydroxy-3,5-dimethyl-1-(methylglycyl)piperidin-4-yl)-5-methylphenyl)-1H-pyrrolo[2,3-b]pyridine-3-carbonitrile], the IC50 falls from 37.9 nM to under 2.5 nM.
